Each block holds one compound with its values, some of them ahead of it.
Key:
CalS13 = CalS13 (Micromonospora echinospora, UniProt Q8KND8); assay: X-ray crystal structure, […] Å; assay type: binding
WecE = WecE (Escherichia coli, UniProt P27833); assay: X-ray crystal structure, […] Å; assay type: binding; details: covalent external aldimine with PLP; eight subunits
WecE, sequence (P27833 whole entry): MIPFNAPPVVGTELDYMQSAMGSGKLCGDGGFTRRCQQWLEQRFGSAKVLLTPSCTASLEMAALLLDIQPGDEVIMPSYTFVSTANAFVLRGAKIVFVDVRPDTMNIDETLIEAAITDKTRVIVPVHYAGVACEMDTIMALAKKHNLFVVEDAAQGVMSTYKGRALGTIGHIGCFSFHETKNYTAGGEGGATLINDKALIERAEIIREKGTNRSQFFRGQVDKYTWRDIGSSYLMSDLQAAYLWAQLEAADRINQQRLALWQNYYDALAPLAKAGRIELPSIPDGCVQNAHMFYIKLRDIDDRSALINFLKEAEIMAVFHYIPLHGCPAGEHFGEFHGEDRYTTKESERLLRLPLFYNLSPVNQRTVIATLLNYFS

SMILES: Cc1ncc(COP(=O)(O)O)c(C=O)c1O [PLP]
X-ray crystal structure, 2.47 Å (CalS13; covalent internal aldimine with Lys202, all six subunits): All six subunits contained PLP as internal aldimines of Lys202

SMILES: Cc1cn([C@H]2C[C@H](O)[C@@H](COP(=O)(O)OP(=O)(O)O[C@H]3O[C@H](C)[C@H](N)[C@H](O)[C@H]3O)O2)c(=O)[nH]c1=O [TDP-4-amino-4,6-dideoxy-α-D-galactose]
X-ray crystal structure, 2.24 Å (WecE): WecE cocrystallization led to WecE/PLP/TDP-4-amino-4,6-dideoxygalactose ternary complexes

X-ray crystal structure, 2.47 Å (CalS13; with PLP internal aldimine, three of six subunits): three had electron density for just TDP
SMILES: Cc1cn([C@H]2C[C@H](O)[C@@H](COP(=O)(O)OP(=O)(O)O)O2)c(=O)[nH]c1=O [TDP]

From paper PMC4575645 (ACS chemical biology, 2015)
